This note sets out measurements from PubChem BioAssay AID588714 (Southern Research Specialized Biocontainment Screening …, 2011).

As a reminder, the viability is a read-out of living cells in per cent, often relative to untreated cells. In general, CC50 refers to the concentration at which the toxic effect on the cells reaches its halfway point.

Inconclusive results are not listed. Calls of active or inactive are those of the source.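 Rule for the calls: active = viability below 80% at one or more tested concentrations, meaning the compound is toxic to the cells; inconclusive = replicate runs disagree on whether viability fell below 80%; inactive = viability of 80% or more at every dose.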

System in the first experiment: not listed separately
Briefly: Vero E6 cell cytotoxicity, dose response, cytotoxicity control for P. falciparum PFM18AAP inhibitor project, M18 aspartyl aminopeptidase campaign (AID 588714). The conditions noted are these: Vero E6 viability, CellTiter-Glo luminescence, 72 h; at 25 µM (top of the series). On the technique in general: In ATP-based viability assays light output follows the ATP content of the culture.
For the compound `O=C(O)CCCNc1c2ccccc2nc2ccccc12`, the viability is 103% (inactive). Same read-out and setting: for `O=C(O)CCCCNc1c2ccccc2nc2ccccc12` the value was 96.8% (inactive).

The same experiment, now with this note: Vero E6 viability, CellTiter-Glo luminescence, 72 h; at 50 µM (top of the series).
In the case of `Nc1cc(C(=O)c2ccccc2)ccc1O`, the viability is 104% (inactive). Same read-out and setting: the figure for `Cc1c(O)c(=O)ccn1CCNc1c2ccccc2nc2ccccc12` is 89.4% (inactive).

In the case of `COc1ccc(CCNC2CCN(C)CC2)cc1OC`, the viability was 97.5% (inactive).

Consider `O=C(c1ccco1)N1CCN(Cc2cc(=O)c(O)co2)CC1`, for which the viability is 92.2% (inactive).

`O=C(c1ccco1)N1CCN(Cc2cc(=O)c(O)c[nH]2)CC1`: the viability is 100% (inactive).

For the compound `O=c1cc(CO)oc(CN2CCCCC2)c1O`, the viability was 99.7% (inactive). For the compound `COc1ccc(CCN(C)c2ccncc2)cc1OC`, the viability was 83.9% (inactive). Consider `COc1ccc(CCN2CCN(C)CC2)cc1OC`, for which the viability was 98% (inactive).

Take `Oc1ccc(CCN2CCc3ccccc3C2)cc1O`: the viability is 85.7% (inactive).

On to `COc1ccc(CCN2CCc3ccccc3C2)cc1OC`, for which the viability is 86.9% (inactive). Same read-out and setting: for `CCC(C)C(=O)Nc1ccccc1N` (stereo not given) the value was 105% (inactive).

For the compound `CCC(C)C(=O)Nc1ccccc1O` (stereo not given), the viability was 99.8% (inactive). For the compound `Cc1c(-c2ccccc2)[nH]c(-c2ccc(O)c(O)c2)[n+]1O`, the viability was 97.2% (inactive).

As for `CN(CCc1ccc(O)c(O)c1)c1ccncc1`, the viability is 99.3% (inactive).

With `COc1ccc(CCNc2ccncc2)cc1OC`, the viability is 87.5% (inactive). Still for that read-out and setting: the figure for `Oc1ccc(CCNc2c3c(nc4ccccc24)CCCC3)cc1O` is 92.2% (inactive).

Take `COc1ccc(CCC(=O)O)cc1OC`: the viability is 94.6% (inactive). On the same count and under the same terms, for `O=C1OCCN1CCc1nc(-c2ccc(O)c(O)c2)cs1` the value was 92.6% (inactive). On the same count and under the same terms, for `CCC(C)c1ccc(N)c(O)c1` (stereo not given) the value was 103% (inactive); for `COc1ccc(CC(=O)O)cc1OC`, 108% (inactive).

In a further experiment the test system is Vero E6 viability, CellTiter-Glo luminescence, 72 h. The description is as above.
Details: not given
As for `O=c1ccc2cc(O)c(O)cc2o1`, the half-maximal cytotoxic concentration (CC50) was 38.2 µM. On the same count and under the same terms, the figure for `COc1ccc(CCNc2c3ccccc3nc3ccccc23)cc1` is 14.9 µM; for `Oc1ccc(-c2csc(Cc3cc4ccccc4[nH]3)n2)cc1O` it is 15.5 µM. In the case of `COc1ccc(CNc2c3ccccc3nc3ccccc23)cc1OC`, the CC50 is 5.37 µM.

`NCCNc1c2ccccc2nc2ccccc12`: the CC50 is 45.3 µM. On the same count and under the same terms, the figure for `O=S1(=O)c2ccccc2-c2cc(-c3nc(-c4ccc(O)c(O)c4)[nH]c3-c3ccccc3)ccc21` is 19.4 µM; for `NCc1cc2c3c(c(=O)oc2c(O)c1O)CCC3` it is 29.2 µM; for `Oc1ccc(CCNC(c2ccccc2)c2ccccc2)cc1O` it is 36.3 µM. The same measure, in the same setting: the figure for `Oc1ccc(CNc2c3ccccc3nc3ccccc23)cc1O` is 7.78 µM.

`COc1cccc(CCNc2c3ccccc3nc3ccccc23)c1`: the CC50 was 8.75 µM.

For `O=c1cc(CN2CCN(Cc3ccccc3)CC2)c2ccc(O)c(O)c2o1`, the 50% cytotoxic concentration (CC50) was 15.9 µM. Still for that read-out and setting: the figure for `CCOc1cccc(-c2nc(-c3ccc(O)c(O)c3)cs2)c1` is 21.2 µM. Still for that read-out and setting: the figure for `Oc1ccc(CCNc2c3ccccc3nc3ccccc23)cc1` is 7.34 µM; for `CC(C)(C)C(=O)OCc1nc(-c2ccc(O)c(O)c2)cs1` it is 31.6 µM; for `Oc1ccc(CCNc2ccc3ccccc3c2)cc1O` it is 28.3 µM. With `Oc1ccc(CCNc2cncc3ccccc23)cc1O`, the CC50 is 37.7 µM.

On to `COc1ccc(CCCNc2c3ccccc3nc3ccccc23)cc1OC`, for which the CC50 is 21.8 µM. In the case of `Cc1ccc(-c2nc(-c3ccc(O)c(O)c3)cs2)cc1`, the CC50 was 24.5 µM. Still for that read-out and setting: for `O=C1c2ccc3c4c(ccc(c24)C(=O)N1O)CC3` the value was 9.17 µM; for `Cc1nc(NCCc2ccc(O)c(O)c2)c2c3c(sc2n1)CCC3`, 43.7 µM; for `COc1ccc(CCN(C)c2c3ccccc3nc3ccccc23)cc1OC`, 15.9 µM. With `Oc1ccc(CCNc2cccc3ccccc23)cc1O`, the CC50 was 16.5 µM. The same measure, in the same setting: for `COc1ccc(CCNc2c3ccccc3nc3ccccc23)cc1OC` the value was 12.6 µM.
